Source: patent US11999749B2, “Synthesis of a bis-mesylate salt of 4-amino-N-(1-((3-chloro-2-fluorophenyl)amino)-6-methylisoquinolin-5-yl)thieno[3,2-d]pyrimidine-7-carboxamide and intermediates thereto” (Genentech, Inc., priority 2021, dated 2024)

Columns and labels:
[1] = solubility screen of 1b in organic solvents; type: physicochemical
From the text: This is notwithstanding the previously established solubility of 1b in NMP; that solvent should not be used due to its toxicity and the allowed limit of ˜500 ppm in the final pharmaceutical product. The limit for NMP is considerably lower than the 5,000 ppm permitted for DMSO. One of the reasons for relying on the recrystallization step is to remove an excess of NMP from the final product.
The selection of an appropriate anti-solvent is based at least in part on good miscibility with the other solvent(s) being used, low solubility of the solid form (to give desired form), and the ability to effectively remove impurities. To ensure the best control and purge of inorganic impurities in the crude product, water was selected as the anti-solvent. To this end, a more detailed solubility study of the crude material in DMSO/water mixtures at 10, 70, 75 and 80° C. indicated a steep dependence of the solubility of 1b on water content, with temperature having a smaller impact on recovery yield.

[2] = hygroscopicity of the salt forms; type: physicochemical; settings: relative to the bis-HCl salt

solubility ([1]; in DMSO): sufficient solubility
solubility ([1]; in most organic solvents, initial solubility screen): exceptionally low solubility
hygroscopicity [2]: lower hygroscopicity
SMILES: Cc1ccc2c(Nc3cccc(Cl)c3F)nccc2c1NC(=O)c1csc2c(N)ncnc12 [Compound 1b, 4-amino-N-(1-((3-chloro-2-fluorophenyl)amino)-6-methylisoquinolin-5-yl)thieno[3,2-d]pyrimidine-7-carboxamide bis-mesylate]
